In patent publication US20180298405A1, “METHODS AND COMPOSITIONS TO INCREASE HUMAN SOMATIC CELL NUCLEAR TRANSFER (SCNT) EFFICIENCY BY REMOVING HISTONE H3-LYSINE TRIMETHYLATION, AND DERIVATION OF HUMAN NT-ESC” (CHILDREN'S MEDICAL CENTER CORPORATION, priority 2015, published 2018):

Test system: reprogramming resistant regions (RRRs) / ZGA genes
Test: RNA-seq of late 8-cell human SCNT embryos with or without KDM4A mRNA injection (ZGA of RRRs, KDM4A-responsive genes)
Type: cell-based
Details: 8-cell embryos
Text: A sliding window (size 20 kb, step size 10 kb) was used to assess the genome-wide expression level of 4-cell and 8-cell human embryos. For each window, the expression level was quantified with normalized RPM (reads per millions of uniquely mapped reads). […] These activated regions were classed into three groups based on their expression differences in human SCNT and IVF 8-cell embryos.
The SCNT embryos used for ZGA analysis were generated using oocytes donated by a single healthy person (#64) and dermal fibroblast cells from an AMD patient (DFB-8). SCNT and IVF embryos were cultured up to late 8-cell stage, when the compaction of blastomeres is initiated, then they were treated briefly with acid Tyrode solution to remove zona pellucida. To prepare for the 8-cell SCNT embryo, oocytes from a single oocyte donor, and skin fibroblast cells from a single somatic nuclear donor were used. All the procedures are the same as described in the “Human SCNT procedure and KMD4A mRNA injection” section. Only embryos that reached the late 8-cell stage synchronically 74 hours post activation were collected and used for this experiment.
For preparation of the control IVF embryos, several donated early 8-cell stage IVF embryos were thawed and cultured for 5-7 hours to allow them to reach late 8-cell stage before being processed. After removal of the zona pellucida, the denuded embryos were washed 3 times in PBS, loaded into RNAse and DNAse free PCR tubes, spin downed, and snap frozen in liquid nitrogen. Then, they were kept at −80° C. until use. As controls, dermal fibroblast cells of somatic nuclear donors were also prepared. Those fibroblast cells were cultured in a 25 cm^2 flask in DMEM 10% FBS, and approximately 10,000 cells/donor were collected, snap frozen, and stored at −80° C. until use.
Five 8-cell embryos for each group were directly lysed and used for cDNA synthesis using SMART-Seq v4 Ultra Low Input RNA Kit (Clontech). For MEF donor, 10 ng total RNA was used for cDNA synthesis using SMART-Seq v4 Ultra Low Input RNA Kit. After amplification, the cDNA samples were fragmented using Covaris sonicator M220 to an average size of 150 bp (Covaris). Sequencing libraries were made with the fragmented DNA using NEBNext Ultra DNA Library Prep Kit for Illumina according to manufacturer's instruction (New England Biolabs) with different barcodes. For each RNA-seq analysis of hESCs, 1 μg total RNA was used for mRNA purification. Barcoded RNA-seq libraries were generated using NEBNext Ultra Directional RNA Library Prep Kit for Illumina (New England Biolabs). Single end 50 bp sequencing was performed on a HiSeq 2500 sequencer (Illumina). Sequencing reads were mapped to the human genome (hg19) with Tophat2. All programs were performed with default settings (unless otherwise specified). At least 22 million uniquely mapped reads were obtained for each sequencing library, and subsequently assembled into transcripts guided by the reference annotation (Refseq gene models) with Cufflinks v2.0.2. Expression level of each gene was quantified with normalized FPKM (fragments per kilobase of exon per million mapped fragments). Statistical analyses were performed with R (available at: “www.r-project.org/”). Independent 2 group Wilcoxon rank sum tests were used to compare distributions using the wilcox.test function in R. Pearson's r coefficient was calculated using the cor function with default parameters. The hierarchical clustering analysis of the global gene expression pattern in different samples was carried out using heatmap.2 function (gplots package) in R.

Substance: KDM4A mRNA: in vitro transcribed mRNA of full length human KDM4A/JHDM3A cDNA, an H3K9me3 demethylase (SEQ ID NO: 1)
- NDUFAF2 Fold Change (log2) [KDM4A SCNT/Control SCNT]: 1.16 log2
- NMNAT1 Fold Change (log2) [KDM4A SCNT/Control SCNT]: 1.28 log2
- NOC4L Fold Change (log2) [KDM4A SCNT/Control SCNT]: 1.15 log2
- NOP58 Fold Change (log2) [KDM4A SCNT/Control SCNT]: 1.4 log2
- NUDT9 Fold Change (log2) [KDM4A SCNT/Control SCNT]: 1.82 log2
- PAGE5 Fold Change (log2) [KDM4A SCNT/Control SCNT]: 1.24 log2
- PDCD11 Fold Change (log2) [KDM4A SCNT/Control SCNT]: 1.11 log2
- PDE4DIP Fold Change (log2) [KDM4A SCNT/Control SCNT]: 1.79 log2
- PHOSPHO1 Fold Change (log2) [KDM4A SCNT/Control SCNT]: 1.46 log2
- PIK3R4 Fold Change (log2) [KDM4A SCNT/Control SCNT]: 1.58 log2
- PLBD1 Fold Change (log2) [KDM4A SCNT/Control SCNT]: 1.69 log2
- PLD2 Fold Change (log2) [KDM4A SCNT/Control SCNT]: 1.2 log2
- PLVAP Fold Change (log2) [KDM4A SCNT/Control SCNT]: 1.63 log2
- POLR3K Fold Change (log2) [KDM4A SCNT/Control SCNT]: 1.34 log2
- POTEM Fold Change (log2) [KDM4A SCNT/Control SCNT]: 1.56 log2
- PPM1N Fold Change (log2) [KDM4A SCNT/Control SCNT]: 1.68 log2
- PPP2CB Fold Change (log2) [KDM4A SCNT/Control SCNT]: 2.17 log2
- PRAMEF3 Fold Change (log2) [KDM4A SCNT/Control SCNT]: 2.4 log2
- PRAMEF4 Fold Change (log2) [KDM4A SCNT/Control SCNT]: 1.02 log2
- PRAMEF6 Fold Change (log2) [KDM4A SCNT/Control SCNT]: 1.08 log2
- PRAMEF10 Fold Change (log2) [KDM4A SCNT/Control SCNT]: 1.05 log2
- PRAMEF11 Fold Change (log2) [KDM4A SCNT/Control SCNT]: 1.31 log2
- PRAMEF17 Fold Change (log2) [KDM4A SCNT/Control SCNT]: 1.44 log2
- PRPF39 Fold Change (log2) [KDM4A SCNT/Control SCNT]: 1.4 log2
- PTPN22 Fold Change (log2) [KDM4A SCNT/Control SCNT]: 2.57 log2
- RAB9A Fold Change (log2) [KDM4A SCNT/Control SCNT]: 1.39 log2
- RASA2 Fold Change (log2) [KDM4A SCNT/Control SCNT]: 1.36 log2
- RFK Fold Change (log2) [KDM4A SCNT/Control SCNT]: 1.29 log2
- RNU11 Fold Change (log2) [KDM4A SCNT/Control SCNT]: 5.27 log2
- RP2 Fold Change (log2) [KDM4A SCNT/Control SCNT]: 1.82 log2
- RPF2 Fold Change (log2) [KDM4A SCNT/Control SCNT]: 1.46 log2
- RPS6KB2 Fold Change (log2) [KDM4A SCNT/Control SCNT]: 1.81 log2
- SAMD8 Fold Change (log2) [KDM4A SCNT/Control SCNT]: 1.14 log2
- SCO1 Fold Change (log2) [KDM4A SCNT/Control SCNT]: 1.15 log2
- SEPX1 Fold Change (log2) [KDM4A SCNT/Control SCNT]: 1.36 log2
- SERTAD1 Fold Change (log2) [KDM4A SCNT/Control SCNT]: 1.12 log2
- SFTPD Fold Change (log2) [KDM4A SCNT/Control SCNT]: 2.45 log2
- SGCG Fold Change (log2) [KDM4A SCNT/Control SCNT]: 2.73 log2
- SGPP1 Fold Change (log2) [KDM4A SCNT/Control SCNT]: 1.41 log2
- SHFM1 Fold Change (log2) [KDM4A SCNT/Control SCNT]: 1.73 log2
- SIAH1 Fold Change (log2) [KDM4A SCNT/Control SCNT]: 1.7 log2
- SNAPC1 Fold Change (log2) [KDM4A SCNT/Control SCNT]: 1.71 log2
- SNAR-C3 Fold Change (log2) [KDM4A SCNT/Control SCNT]: 1.85 log2
- SNAR-E Fold Change (log2) [KDM4A SCNT/Control SCNT]: 1.72 log2
- SNHG9 Fold Change (log2) [KDM4A SCNT/Control SCNT]: 1.3 log2
- SNHG12 Fold Change (log2) [KDM4A SCNT/Control SCNT]: 1.42 log2
- SPINK7 Fold Change (log2) [KDM4A SCNT/Control SCNT]: 5.38 log2
- SRA1 Fold Change (log2) [KDM4A SCNT/Control SCNT]: 1.23 log2
- SSX3 Fold Change (log2) [KDM4A SCNT/Control SCNT]: 1.1 log2
- STAG3L2 Fold Change (log2) [KDM4A SCNT/Control SCNT]: 1.35 log2
- STAG3L4 Fold Change (log2) [KDM4A SCNT/Control SCNT]: 1.17 log2
- STAP2 Fold Change (log2) [KDM4A SCNT/Control SCNT]: 1.25 log2
- SUZ12P Fold Change (log2) [KDM4A SCNT/Control SCNT]: 1.68 log2
- TAC1 Fold Change (log2) [KDM4A SCNT/Control SCNT]: 1.38 log2
- TCEANC2 Fold Change (log2) [KDM4A SCNT/Control SCNT]: 1.13 log2
- TCN2 Fold Change (log2) [KDM4A SCNT/Control SCNT]: 1.4 log2
- TEN1 Fold Change (log2) [KDM4A SCNT/Control SCNT]: 1.66 log2
- THOC5 Fold Change (log2) [KDM4A SCNT/Control SCNT]: 1.46 log2
- TIMM10 Fold Change (log2) [KDM4A SCNT/Control SCNT]: 1.41 log2
- TMEM41B Fold Change (log2) [KDM4A SCNT/Control SCNT]: 1.14 log2
- TMEM92 Fold Change (log2) [KDM4A SCNT/Control SCNT]: 1.42 log2
- TMEM159 Fold Change (log2) [KDM4A SCNT/Control SCNT]: 1.17 log2
- TRIM39-RPP21 Fold Change (log2) [KDM4A SCNT/Control SCNT]: 1.09 log2
- TRIML2 Fold Change (log2) [KDM4A SCNT/Control SCNT]: 1.55 log2
- TSEN34 Fold Change (log2) [KDM4A SCNT/Control SCNT]: 1.28 log2
- TTC27 Fold Change (log2) [KDM4A SCNT/Control SCNT]: 1.72 log2
- TTC28-AS1 Fold Change (log2) [KDM4A SCNT/Control SCNT]: 1.74 log2
- UBTFL1 Fold Change (log2) [KDM4A SCNT/Control SCNT]: 1.8 log2
- UTP3 Fold Change (log2) [KDM4A SCNT/Control SCNT]: 1.08 log2
- UTP23 Fold Change (log2) [KDM4A SCNT/Control SCNT]: 1.35 log2
- UTS2 Fold Change (log2) [KDM4A SCNT/Control SCNT]: 1.28 log2
- VAMP1 Fold Change (log2) [KDM4A SCNT/Control SCNT]: 2.23 log2
- VCX2 Fold Change (log2) [KDM4A SCNT/Control SCNT]: 1.77 log2
- VCX Fold Change (log2) [KDM4A SCNT/Control SCNT]: 1.72 log2
- VPS54 Fold Change (log2) [KDM4A SCNT/Control SCNT]: 2.28 log2
- WDR77 Fold Change (log2) [KDM4A SCNT/Control SCNT]: 1.18 log2
- XAGE5 Fold Change (log2) [KDM4A SCNT/Control SCNT]: 1.07 log2
- ZCCHC10 Fold Change (log2) [KDM4A SCNT/Control SCNT]: 1.22 log2
- ZFYVE19 Fold Change (log2) [KDM4A SCNT/Control SCNT]: 1.49 log2
- ZNF92 Fold Change (log2) [KDM4A SCNT/Control SCNT]: 1.03 log2
- ZNF100 Fold Change (log2) [KDM4A SCNT/Control SCNT]: 2.53 log2
- ZNF174 Fold Change (log2) [KDM4A SCNT/Control SCNT]: 1.24 log2
- ZNF208 Fold Change (log2) [KDM4A SCNT/Control SCNT]: 1.57 log2
- ZNF254 Fold Change (log2) [KDM4A SCNT/Control SCNT]: 1.37 log2
- ZNF273 Fold Change (log2) [KDM4A SCNT/Control SCNT]: 1.11 log2
- ZNF280A Fold Change (log2) [KDM4A SCNT/Control SCNT]: 1.34 log2
- ZNF326 Fold Change (log2) [KDM4A SCNT/Control SCNT]: 1.37 log2
- ZNF345 Fold Change (log2) [KDM4A SCNT/Control SCNT]: 1.46 log2
- ZNF486 Fold Change (log2) [KDM4A SCNT/Control SCNT]: 1.74 log2
- ZNF487P Fold Change (log2) [KDM4A SCNT/Control SCNT]: 1.2 log2
- ZNF625-ZNF20 Fold Change (log2) [KDM4A SCNT/Control SCNT]: 2.32 log2
- ZNF625 Fold Change (log2) [KDM4A SCNT/Control SCNT]: 1.87 log2
- ZNF669 Fold Change (log2) [KDM4A SCNT/Control SCNT]: 1.08 log2
- ZNF675 Fold Change (log2) [KDM4A SCNT/Control SCNT]: 1.87 log2
- ZNF676 Fold Change (log2) [KDM4A SCNT/Control SCNT]: 1.29 log2
- ZNF679 Fold Change (log2) [KDM4A SCNT/Control SCNT]: 2.13 log2
- ZNF680 Fold Change (log2) [KDM4A SCNT/Control SCNT]: 1.18 log2
- ZNF684 Fold Change (log2) [KDM4A SCNT/Control SCNT]: 1.53 log2
- ZNF700 Fold Change (log2) [KDM4A SCNT/Control SCNT]: 1.49 log2
- ZNF724P Fold Change (log2) [KDM4A SCNT/Control SCNT]: 1.04 log2
- ZNF729 Fold Change (log2) [KDM4A SCNT/Control SCNT]: 1.75 log2
- ZNF735 Fold Change (log2) [KDM4A SCNT/Control SCNT]: 1.24 log2
- ZNF789 Fold Change (log2) [KDM4A SCNT/Control SCNT]: 1.28 log2
- ZNF791 Fold Change (log2) [KDM4A SCNT/Control SCNT]: 1.38 log2
